Measured values published in paper PMC7617869, “Molecular glues that inhibit deubiquitylase activity and inflammatory signaling” (Nature Structural & Molecular Biology, 2025).
“And” between values parts separate entries of the source, which are not always exact repeats. Identical values can stand only once.

How the values were obtained:
Type in all cases: cell-based, human
[1] = test system: CXCL10 secretion in healthy PBMCs; test: Healthy PBMC CXCL10 ELISA, IFNα2-stimulated
Procedure: (§1) PBMCs in vitro experiments
(§2) Peripheral blood mononuclear cells (PBMCs) from healthy and SSc donors were separated using density gradient method (Leucosep™, Greiner Bio-One International) from EDTA anticoagulated peripheral blood; isolated cells were washed twice by PBS. PBMCs were then incubated in RPMI1640 […]
For healthy PBMCs, cells were stimulated with 20 ng/mL of IFN (+/- compounds or DMSO). For SSc PBMCs, cells were in basal conditions with no additional IFN stimulation. Cells were centrifuged at 300 g for 10 minutes. Supernatant was removed and subjected to R&D Systems DY266 Human CXCL10/IP-10 DuoSet ELISA (Biotechne) in duplicates, according to manufacturer’s guidance. Concentration of CXCL10 was determined according to a 4-parameter

[2] = test system: ISG expression in healthy control PBMCs; test: Healthy PBMC type I IFN signaling gene expression array, IFNα2-stimulated; conditions: IFNα2 20 ng/mL, 2 µM, 16 h
Procedure: NEM). Cell lysates were clarified by centrifugation at 15,000 g for 10 minutes at 4 °C. Clarified lysates were pre-cleared with control uncoupled agarose beads (UM400, LifeSensors) for 30 minutes on a rotator at 4 °C followed by centrifugation at 5,000 g for 2 minutes. Equal amount of pre-cleared lysates from individual samples were incubated with 20 µL Agarose-TUBE beads (pre-equilibrated with 1X Tris-buffered saline (TBS)) overnight on a rotator at 4 °C. Beads were collected by centrifugation at 5,000 g for 2 minutes at RT followed by four stringent washes with 1X TBST (TBS, 0.1% Tween-20). TUBE-pulldown proteins were eluted by boiling Agarose-TUBE beads in 2X LDS sample buffer supplemented with […] DTT for 15 minutes. Eluted proteins were resolved on NuPAGE™ 4–12% Bis–Tris gel followed by Western blotting using anti-IFNAR1 antibody (ab124764, Abcam).
as §1, §2
For healthy PBMCs, cells were stimulated with 20 ng/mL of IFN (+/- compounds or DMSO). […] Concentration of CXCL10 was determined according to a 4-parameter logistic regression standard curve. […]
For Type I IFN signalling analysis, the human IFN I RT2 Profiler PCR Array (Qiagen, PAMM-016ZE) was performed on available RNA from healthy (n=3) and SSc (n=9) donors. […] Relative expression for each gene was determined, firstly by ∆CT calculated using the geometric mean of 4 housekeeping genes (ACTB, GAPDH, HPRT1, RPLP0), followed by 2^(-∆CT), and expressed as fold change to control, according to manufacturer’s guidance. IFN2α-induced ISGs in healthy donors were determined using a Student’s t-test (two-tail distribution and equal variances) on the triplicate fold change in 2^(-ΔCT) values between […]
(§3) R Foundation for Statistical Computing). The IFN2α inducible genes determined in healthy donors […]

[3] = test system: composite ISG score in SSc PBMCs; test: SSc PBMC composite ISG score (CXCL10, IFIT1, ISG15, MX1); conditions: for CXCL10 / IFIT1 / ISG15 / MX1: sheet Ext. 9e, SSc PBMCs, 20 values per compound (one per patient sample); for composite ISG score: unstimulated SSc PBMCs (n = 20), 2 µM, 16 h, relative to AP-5-145
Procedure: as §1, §2
For healthy PBMCs, cells were stimulated with 20 ng/mL of IFN (+/- compounds or DMSO). For SSc PBMCs, cells were in basal conditions with no additional IFN stimulation. Cells were centrifuged at 300 g for 10 minutes. […]
RNA was extracted from cell pellets using TRIzol™ (ThermoFisher
Scientific, Waltham, MA) and processed using Quick-RNA Miniprep Kit (Zymo Research) as per the manufacturer’s instruction.
For Type I IFN signalling analysis, the human IFN I RT2 Profiler PCR Array (Qiagen, PAMM-016ZE) was performed on available RNA from healthy (n=3) and SSc (n=9) donors. RNA was converted to cDNA using RT2 First Strand Kit (Qiagen). Next, the cDNA was mixed with RT2 SYBR Green Mastermix (Qiagen, Venlo). Successful PCR performance was confirmed by assay tests for genomic DNA contamination, RNA sample quality, as well as single melt curve determination and <35 Ct for each gene, leading to validated gene expression of 67 genes. Relative expression for each gene was determined, firstly by ∆CT calculated using the geometric mean of 4 housekeeping genes (ACTB, GAPDH, HPRT1, RPLP0), followed by 2^(-∆CT), and expressed as fold change to control, according to manufacturer’s guidance. IFN2α-induced ISGs in healthy donors were determined using a Student’s t-test (two-tail distribution and equal variances) on the triplicate fold change in 2^(-ΔCT) values between […]
donors). Heatmaps were generated using the “pheatmap” function in R (v4.0.2) and RStudio (v1.3.1093) applying row scaling to standardise the expression data across samples (R core team 2020.
as §3
171-C. To account for Type I IFN signalling heterogeneity across samples, the mean 2^(-∆CT) for each […]
relative gene expression, illustrated as a fold change and visualised in log2. The Type I IFN signalling array data for the patient samples is included in Source Data Figure 6, Extended Data Fig. 9.

[4] = test system: IFNAR1 cell surface levels in MCF10A BRCC45 WT cells; test: MCF10A BRCC45 WT IFNAR1 cell surface levels (FACS); conditions: for IFNAR1 cell surface levels (Fig. 5g): BRCC45 KO + BRCC45 WT, IFN + compound, No IFN about 100; for IFNAR1 cell surface levels: BRCC45 WT cells, IFN 50 ng/ml, 5 μM, 90 min
Procedure: To study the direct effect of BRISC DUB inhibitors, IFNAR1 surface levels were measured using flow cytometry (FACS) analysis. For this purpose, MCF10A WT and MCF10A BRCC45 KO cells expressing […]
BRCC45 WT or BRCC45 R137A were used. […]
minutes prior to the addition of 50 ng/mL of hIFN-Iα for various time points (45 minutes and 90 minutes).
After IFN treatment, cells were dissociated from plate using cell dissociation Buffer (ThermoFisher Scientific, #13150016) and were stained with LIVE/DEAD™ Fixable Violet Dead Cell Stain Kit, for 405 nm excitation (ThermoFisher Scientific, #L34963) for 30 minutes, as per the kit protocol. The cells were then washed using FACS buffer (DPBS, 1% BSA, 2 mM EDTA, 0.09% sodium azide) and transferred to 96-well round bottom plates. Resuspended cells were divided into three repeats for each sample, each was surface stained for 1 hour at 4 °C with: 1. Human IFN-alpha/beta R1 Antibody (R&D systems, #MAB245), 2. Mouse IgG1 Isotype Control (R&D systems, #MAB002), 3. FACS buffer (control cells).
Following incubation, cells were washed once with FACS buffer and were labelled for 30 minutes at 4 °C with either Biotin-SP-conjugated AffiniPure Donkey Anti-Mouse IgG (H+L) (Jackson Immunoresearch Laboratories) for samples 1 and 2 or with FACS buffer for sample 3. Cells were washed twice with FACS buffer and were labelled for 15 minutes at 4 °C with either R-Phycoerythrin-conjugated Streptavidin (Jackson Immunoresearch Laboratories) for samples 1 and 2 or with FACS buffer for sample 3. Cells were washed 3 times with FACS buffer and were analysed by FACS (MACSQuant, Miltenyi Biotec). For each sample from group 1 the Geo mean fluorescence intensity (MFI) of its isotype sample was reduced. IFNAR1 cell surface percentage was calculated by 100*(MFI

Compound	CXCL10, healthy donor PBMCs (Fig. 6c) ([1]; Healthy donor HC1)	CXCL10, healthy donor PBMCs (Fig. 6c) ([1]; Healthy donor HC2)	CXCL10, healthy donor PBMCs (Fig. 6c) ([1]; Healthy donor HC3)	IFN-induced ISG expression (in words) [2]	CXCL10 [3]	IFIT1 [3]	ISG15 [3]	MX1 [3]	IFNAR1 cell surface levels (Fig. 5g) [4]	composite ISG score [3]	IFNAR1 cell surface levels [4]	number of the 34 IFN-upregulated ISGs suppressed compared to AP-5-145 [2]
Cn1cc(NC(=O)c2c(Cl)cccc2Cl)c(C(=O)NC2CCN(C(=O)c3c(Cl)cccc3Cl)CC2)n1 [AP-5-145]	89.7308	123.351	106.128	no difference in ISG expression profile	1.751 and 0.25 and 0.7382 and 0.8655 and 0.7967 and 0.4021 and 0.5617 and 1.22 and 0.6479 and 2.776 and 1.1866 and 0.5017 and 0.551 and 0.4363 and 0.9229 and 0.6553 and 1.25 and 0.7409 and 0.339 and 0.3688	0.6337 and 0.5474 and 0.8263 and 0.6524 and 0.6203 and 0.9706 and 0.5382 and 1.166 and 0.8191 and 0.9287 and 1.423 and 0.5364 and 0.8639 and 0.4363 and 0.9229 and 1.253 and 1.322 and 1.329 and 0.8934 and 0.7188	1.377 and 0.6237 and 1.266 and 0.7354 and 0.9639 and 0.9802 and 0.5935 and 1.766 and 0.659 and 0.6409 and 0.6943 and 0.6974 and 1.099 and 0.4464 and 1.007 and 1.459 and 1.622 and 0.4684 and 1.547 and 1.209	0.9424 and 0.9381 and 0.6518 and 0.8276 and 0.6072 and 1.137 and 0.7908 and 1.689 and 0.9753 and 0.9313 and 1.364 and 0.7737 and 0.8832 and 0.4676 and 0.7628 and 0.9541 and 1.254 and 0.9134 and 1.016 and 0.8618	55.2385 and 54.5047 and 53.242			
O=C(NC1C2CNCC21)c1nn(C(=O)c2c(Cl)cccc2Cl)cc1NC(=O)c1c(Cl)cccc1Cl (stereo not shown) [FX-171-C]	77.343	68.1378	64.5563	less reduction in ISG expression	1.514 and 0.251 and 1.066 and 0.167 and 0.5332 and 0.7533 and 1.612 and 0.6702 and 0.5368 and 1.6313 and 0.1436 and 0.6323 and 0.4166 and 0.1288 and 0.6936 and 0.646 and 0.6924 and 0.6022 and 0.5701 and 0.08999	0.2868 and 0.437 and 1.363 and 0.3735 and 0.4257 and 0.6696 and 0.8252 and 0.3503 and 0.5958 and 0.5382 and 1.388 and 0.256 and 0.9671 and 0.1288 and 0.6936 and 1.317 and 1.359 and 0.9945 and 0.8122 and 0.05751	0.9038 and 0.4123 and 1.522 and 0.5454 and 1.252 and 0.967 and 0.791 and 0.6842 and 0.9244 and 0.2949 and 0.1516 and 1.006 and 0.9237 and 0.1709 and 0.7851 and 1.799 and 0.9132 and 0.323 and 0.9506 and 0.1287	0.4428 and 0.9634 and 1.459 and 0.4711 and 0.7459 and 1.024 and 0.9419 and 0.919 and 0.9953 and 1.074 and 1.146 and 0.5685 and 0.9032 and 0.1777 and 0.6324 and 0.9421 and 1.363 and 0.7344 and 1.47 and 0.4028	39.3476 and 40.435 and 39.71	reduced the composite ISG score	reduction in IFNAR1 cell surface levels	
O=C(NC1CCNCC1)c1nn(C(=O)c2c(Cl)cccc2Cl)cc1NC(=O)c1c(Cl)cccc1Cl [JMS-175-2]	63.2851	45.1027	43.5189		0.2536 and 3.414 and 0.2313 and 0.3588 and 1.2272 and 0.4193 and 1.168 and 0.8338 and 0.6055 and 1.239 and 0.3406 and 0.08106 and 0.000123 and 0.3625 and 0.05611 and 0.1808 and 1.381 and 0.5771 and 0.5421 and 0.1347	0.2366 and 1.382 and 0.8014 and 0.1818 and 0.6785 and 0.4193 and 1.168 and 0.7189 and 1.817 and 1.319 and 1.1 and 0.2301 and 0.1676 and 0.4861 and 0.2758 and 0.6203 and 0.8038 and 0.5004 and 0.169 and 0.3186	0.4563 and 0.8641 and 0.6274 and 0.4056 and 0.5557 and 0.616 and 1.197 and 0.8342 and 1.6 and 0.5253 and 1.319 and 0.4936 and 0.2916 and 0.7218 and 0.3961 and 0.8921 and 0.9105 and 0.5615 and 0.4313 and 0.6786	0.223 and 0.8929 and 1.04 and 0.5006 and 0.9521 and 0.6554 and 1.256 and 0.9444 and 1.592 and 1.073 and 1.238 and 0.494 and 0.2991 and 0.4305 and 0.1662 and 0.4949 and 1.066 and 0.6875 and 0.4778 and 0.5729	38.381 and 37.8977 and 40.435	reduced the composite ISG score	reduction in IFNAR1 cell surface levels	13
